# Where “and” joins values, the source holds several entries; their conditions need not be identical. Equal values may be shown once.
# Tests used:
# Type in all cases: in vivo, Sprague-Dawley rats
# sciatic nerve [1] = experiment: Sensory selectivity of sciatic nerve blockade (thermal nociceptive versus motor block); details: for selective thermal nociceptive blockade as compared to motor blockade: in combination with OTAB (Example 3: 100 mM QX-222, 30 mM OTAB)
# Experimental: (§1) Animals were cared for in compliance with protocols approved by the Massachusetts Institute of Technology (MIT) Committee on Animal Care, in conformity with the NIH guidelines for the care and use of laboratory animals (NIH publication #85-23, revised 1985). Rats were anesthetized using isoflurane in oxygen. A 25-gauge needle was introduced posteromedial to the greater trochanter, and 300 μL of the QX-314+/−enhancer solution was injected upon contacting bone. To determine the effect of QX-314 on sensory and motor blockade, animals were injected with QX-314 at different concentrations. To determine the effect of the chemical penetration enhancer (OTAB) on the sensory and motor blockade produced by QX-314, animals were injected with different concentrations of OTAB, with the concentration of QX-314 kept constant at 25 mM.
# (§2) In all experiments, the experimenter was blinded as to what treatment any given rat had received. Presence and extent of nerve blockade was investigated as previously described (Kohane, et al., Anesthesiology, 89:1199-1208 (1998); Padera, et al., Muscle Nerve, 34:747-53 (2006); Kohane, et al., Anesthesiology, 89:119-31 (1998); Masters, et al., Anesthesiology, 79(2):340-346 (1993)). Briefly, thermal nociception of each leg was assessed, with the right (uninjected) leg serving as an untreated control.
# (§3) Thermal nociception was assessed by a modified hotplate test. Hind paws were exposed in sequence (left then right) to a 56° C. hot plate (Model 39D Hot Plate Analgesia Meter, IITC Inc., Woodland Hills, Calif.). The time (latency) until paw withdrawal was measured with a stopwatch.
# (§4) The duration of thermal nociceptive block was calculated as the time required for thermal latency to return to a value of 7 seconds from a higher value. Seven seconds is the midpoint between a baseline thermal latency of approximately 2 seconds in adult rats and a Maximal latency of 12 seconds. Latencies greater than 7 sec were considered to be effective blocks.
# (§5) The rat was held with its posterior placed at a digital balance on which it could bear weight with one hindpaw at a time. The maximum weight that the rat could bear without its ankle touching the balance was measured.
# (§6) Methods were as described in Example 1.
# (§7) To establish that the selective block could be obtained with other local anesthetics, the methods of example 1 were performed using 100 mM QX-222 and 30 mM OTAB, and compared to the results obtained using 100 mM […] and 30 mM OTAB.
# sciatic nerve [2] = experiment: Duration of thermal nociceptive (sensory) block after sciatic nerve injection, modified hotplate test
# Experimental: (§8) Young adult male Sprague-Dawley rats (350-420 g) were obtained from Charles River Laboratories (Wilmington, Mass.) and housed in groups of two per cage on a 6 a.m. to 6 p.m. light/dark cycle. All animals were cared for in accordance with protocols approved institutionally and nationally.
# (§9) QX-314 and octyltriethylammonium bromide (OTAB) (Sigma) solutions were prepared in saline individually and in combination with each enhancer the night before scheduled injections.
# as §1, §2, §3, §4, §6, §7
# sciatic nerve [3] = experiment: Duration of motor block after sciatic nerve injection, extensor postural thrust (EPT)
# Experimental: as §8, §9, §1, §2, §5, §6, §7
# [4] = 25 mM QX-314 co-injected with 5 mM SOS
# [5] = 25 mM QX-314 co-injected with 10 mM SOS
# [6] = 25 mM QX-314 co-injected with 0.5% TWEEN 20
# [7] = QX-314 without CPE, different concentrations, 300 μl
smiles,measurement,setting,value
"Cc1cccc(C)c1NC(=O)C[N+](C)(C)C [QX-222, 2-((2,6-dimethylphenyl)amino)-N,N,N-trimethyl-2-oxoethanaminium]",selective thermal nociceptive blockade as compared to motor blockade,sciatic nerve [1],Comparable selective thermal nociceptive blockade
"CC[N+](CC)(CC)CC(=O)Nc1c(C)cccc1C [QX-314, N-(2,6)dimethylphenylcarbamoylmethyl triethylammonium bromide]",sensory block,sciatic nerve [2]; [4],235 min
same,sensory block,sciatic nerve [2]; [5],870 min
same,sensory DEB (duration of effective block),sciatic nerve [2]; 25 mM QX-314 co-injected with 20 mM OTAB,428 min and 406 min
same,duration of sensory block,sciatic nerve [2]; 25 mM QX-314 co-injected with 30 mM OTAB,450 min
same,median sensory blockade,sciatic nerve [2]; [6],269 min
same,sensory duration of block versus concentration,sciatic nerve [2]; [7],concentration-dependent increase
same,duration of motor block,"sciatic nerve [3]; 25 mM QX-314 alone, 300 μL at the sciatic nerve, rat",165 min
same,motor block,sciatic nerve [3]; [4],0 min
same,motor block,sciatic nerve [3]; [5],532 min
same,motor effect,sciatic nerve [3]; 25 mM QX-314 co-injected with 20 mM or 30 mM OTAB,little or no motor effect
same,median motor blockade,sciatic nerve [3]; [6],0 min
same,motor duration of block versus concentration,sciatic nerve [3]; [7],concentration-dependent increase
same,sensory selectivity,"sciatic nerve [1]; 25 mM QX-314 co-injected with SOS 5, 10, 20, 30 mM",sensory selectivity at all concentrations of SOS
same,sensory specificity,sciatic nerve [1]; 25 mM QX-314 with higher OTAB concentrations (>30 mM),no sensory specificity
same,specificity of block,sciatic nerve [1]; 25 mM QX-314 with higher SOS concentrations (10-30 mM),initially non-specific
same,sensory versus motor block duration,sciatic nerve [1]; 25 mM QX-314 with lower concentrations of OTAB (10-30 mM),"significant increase in sensory block duration, without a corresponding increase in motor block duration"
same,modality specificity,sciatic nerve [1]; QX-314 in the absence of a CPE,no evidence of modality specificity
same,TWEEN 20 concentration of maximum sensory specificity (optimal),sciatic nerve [1]; co-injected with 25 mM QX-314,0.5%
same,selective thermal nociceptive blockade as compared to motor blockade,sciatic nerve [1],Comparable selective thermal nociceptive blockade
same,SOS concentration range with sensory selectivity,sciatic nerve [1]; with 25 mM QX-314,1 to 50 mM
same,optimal OTAB concentration for sensory selectivity,sciatic nerve [1]; with 25 mM QX-314,20 mM

# — patent US8609733B2, “Sensory-specific local anesthesia and prolonged duration local anesthesia” (Massachusetts Institute of Technology, priority 2008, dated 2013)
